# Article PMC6149849, “Cymantrenyl-Nucleobases: Synthesis, Anticancer, Antitrypanosomal and Antimicrobial Activity Studies” (Molecules : A Journal of Synthetic Chemistry and Natural …, 2017)
# How the values were obtained:
# [1] = tested on: S. aureus ATCC 25923; assay: Effect on bacterial morphology (SEM) with MIC and MBC; assay type: cell-based, Staphylococcus aureus
# Description: In order to elucidate the bactericidal mechanism of action of cymantrenes, the effect of compound 1 on the morphology of S. aureus ATCC 25923 was exemplary studied by scanning electron microscopy (SEM) (Figure 9).
# The effect of compound 1 on bacterial morphology was studied by SEM, as previously described. Briefly, samples of S. aureus ATCC 25923 (10^5 CFU/mL) were centrifuged (600× g, 5 min) and resuspended in growth medium containing compound 1 at concentration of 48 or 64 µg/mL. After incubation for 24 h at 37 °C, the cells were washed twice with PBS (0.1 × PBS), fixed with 2.5% glutaraldehyde (overnight), filtered (0.2 μm, pore size cutoff), and subsequently dehydrated in a series of ethanol washes (30%, 50%, 70%, 80%, 90% and 100%; twice for 15 min). The solvent was then evaporated and the samples were coated with a thin layer of platinum (15 nm). SEM images were recorded using a SEM Inspect F50 (FEI Co., Eindhoven, The Netherlands) at an energy range of 10–15 keV.
# [2] = tested on: human myeloid leukemia HL-60 cells; settings: cited from earlier work
SMILES,"MIC, S. aureus ATCC 25923 [1] [µg/mL]","minimal bactericidal concentration; MBC, S. aureus ATCC 25923 [1] [µg/mL]","bacterial morphology by SEM ([1]; 48 µg/mL and 64 µg/mL, 24 h)",GI50 [2] [µM],HL-60 MIC [2] [µM]
O=C(CCn1cc(F)c(=O)[nH]c1=O)[C]12[CH]3[CH]4[CH]5[CH]1[Mn]4532.[C-]#[O+].[C-]#[O+].[C-]#[O+] (centres unmarked) [Compound 1],32,128,"severe morphological alterations in cell dimensions and structure, as well as the disruption of the outer envelope",,
Nc1ncnc2c1ncn2CCC(O)[C]12[CH]3[CH]4[CH]5[CH]1[Mn]45321[P](c2ccccc2)(c2ccccc2)CC[P]1(c1ccccc1)c1ccccc1.[C-]#[O+] (racemic) [Compound C],,,,21.8 ± 8.6,100
